According to patent US8003785B2 (Takeda Pharmaceutical Company Limited, priority 2008, dated 2011):

Each molecule was assayed against T1, PLK1 (Homo sapiens, UniProt P53350) (assay: Biochemical Characterization Assay: HTRF kinase assay, GST-PLK1 phosphorylation of GST-p53). Conditions: GST-PLK1, GST-p53 substrate.
T1 construct: Full-length, active GST-PLK1 is purified from Sf9 insect cells; made in house; host or cells: Sf9 insect cells
Method in brief: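 Full-length active GST-PLK1 (Sf9, 3 ug/mL) phosphorylated full-length GST-p53 (E. coli) in Kinase Assay Buffer for 35 min at 37 °C. Stopped with EDTA; phospho-p53 detected by HTRF with anti-phospho-p53, Eu-anti-rabbit and APC-anti-GST antibodies.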

T1 sequence (P53350 whole entry): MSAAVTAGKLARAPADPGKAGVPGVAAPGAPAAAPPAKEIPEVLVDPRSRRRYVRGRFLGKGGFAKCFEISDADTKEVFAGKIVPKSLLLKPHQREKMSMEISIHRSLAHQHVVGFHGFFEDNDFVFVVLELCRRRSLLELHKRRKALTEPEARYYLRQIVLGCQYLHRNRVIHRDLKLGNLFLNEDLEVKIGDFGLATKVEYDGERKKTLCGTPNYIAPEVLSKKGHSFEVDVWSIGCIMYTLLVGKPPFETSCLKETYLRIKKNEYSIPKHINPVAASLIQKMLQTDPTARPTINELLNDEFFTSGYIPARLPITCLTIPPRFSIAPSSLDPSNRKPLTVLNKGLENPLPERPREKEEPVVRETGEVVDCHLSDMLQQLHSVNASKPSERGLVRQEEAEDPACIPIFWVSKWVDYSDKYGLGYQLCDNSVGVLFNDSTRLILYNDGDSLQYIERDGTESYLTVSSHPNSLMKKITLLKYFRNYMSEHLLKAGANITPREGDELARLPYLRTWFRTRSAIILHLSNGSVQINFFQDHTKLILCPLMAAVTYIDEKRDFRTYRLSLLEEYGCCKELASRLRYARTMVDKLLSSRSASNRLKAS

Compound | IC50
CCN1C(=O)C(F)(F)CN(C2CCCC2)c2nc(Nc3ccc(C(=O)NC4CCN(C)CC4)cc3OC)ncc21 [Example I-159, 4-(9-cyclopentyl-5-ethyl-7,7-difluoro-6-oxo-6,7,8,9-tetrahydro-5H-pyrimido[4,5-b][1,4]diazepin-2-ylamino)-3-methoxy-N-(1-methyl-piperidin-4-yl)-benzamide] | 51 to 500 nM
CCN1C(=O)C(F)(F)CN(C2CCCC2)c2nc(Nc3ccc(C(=O)NCCCN(C)C)cc3OC)ncc21 [Example I-160, 4-(9-cyclopentyl-5-ethyl-7,7-difluoro-6-oxo-6,7,8,9-tetra-hydro-5H-pyrimido[4,5-b][1,4]diazepin-2-ylamino)-N-(3-dimethylamino-propyl)-3-methoxy-benzamide] | 51 to 500 nM
CCN1C(=O)C(F)(F)CN(C2CCCC2)c2nc(Nc3ccc(C(=O)NC4CCOCC4)cc3OC)ncc21 [Example I-161, 4-(9-cyclopentyl-5-ethyl-7,7-difluoro-6-oxo-6,7,8,9-tetrahydro-5H-pyrimido[4,5-b][1,4]diazepin-2-ylamino)-3-methoxy-N-(tetrahydro-pyran-4-yl)-benzamide] | 500 to 5000 nM
CCCN1C(=O)C(F)(F)CN(C2CCCC2)c2nc(Nc3ccc(C(N)=O)cc3OC)ncc21 [Example I-163, 4-(9-cyclopentyl-7,7-difluoro-6-oxo-5-propyl-6,7,8,9-tetrahydro-5H-pyrimido[4,5-b][1,4]diazepin-2-ylamino)-3-methoxy-benzamide] | 500 to 5000 nM
CCCN1C(=O)C(F)(F)CN(C2CCCC2)c2nc(Nc3ccc(C(=O)NC)cc3OC)ncc21 [Example I-164, 4-(9-cyclopentyl-7,7-difluoro-6-oxo-5-propyl-6,7,8,9-tetrahydro-5H-pyrimido[4,5-b][1,4]diazepin-2-ylamino)-3-methoxy-N-methyl-benzamide] | 500 to 5000 nM
CCCN1C(=O)C(F)(F)CN(C2CCCC2)c2nc(Nc3ccc(C(=O)NC4CCN(C)CC4)cc3OC)ncc21 [Example I-165, 4-(9-cyclopentyl-7,7-difluoro-6-oxo-5-propyl-6,7,8,9-tetrahydro-5H-pyrimido[4,5-b][1,4]diazepin-2-ylamino)-3-methoxy-N-(1-methyl-piperidin-4-yl)-benzamide] | 51 to 500 nM
CCCN1C(=O)C(F)(F)CN(C2CCCC2)c2nc(Nc3ccc(C(=O)NCCCN(C)C)cc3OC)ncc21 [Example I-166, 4-(9-cyclopentyl-5-propyl-7,7-difluoro-6-oxo-6,7,8,9-tetra-hydro-5H-pyrimido[4,5-b][1,4]diazepin-2-ylamino)-N-(3-dimethylamino-propyl)-3-methoxy-benzamide] | 51 to 500 nM
CCCN1C(=O)C(F)(F)CN(C2CCCC2)c2nc(Nc3ccc(C(=O)NC4CCOCC4)cc3OC)ncc21 [Example I-167, 4-(9-cyclopentyl-7,7-difluoro-6-oxo-5-propyl-6,7,8,9-tetrahydro-5H-pyrimido[4,5-b][1,4]diazepin-2-ylamino)-3-methoxy-N-(tetrahydro-pyran-4-yl)-benzamide] | 500 to 5000 nM
COc1cc(C(N)=O)c(F)cc1Nc1ncc2c(n1)N(C1CCCC1)CC(F)(F)C(=O)N2C [Example I-170, 4-(9-cyclopentyl-7,7-difluoro-5-methyl-6-oxo-6,7,8,9-tetrahydro-5H-pyrimido[4,5-b][1,4]diazepin-2-ylamino)-2-fluoro-5-methoxy-benzamide] | 1 to 50 nM
CNC(=O)c1cc(OC)c(Nc2ncc3c(n2)N(C2CCCC2)CC(F)(F)C(=O)N3C)cc1F [Example I-171, 4-(9-cyclopentyl-7,7-difluoro-5-methyl-6-oxo-6,7,8,9-tetrahydro-5H-pyrimido[4,5-b][1,4]diazepin-2-ylamino)-2-fluoro-5-methoxy-N-methyl-benzamide] | 1 to 50 nM
COc1cc(C(=O)NCCCN(C)C)c(F)cc1Nc1ncc2c(n1)N(C1CCCC1)CC(F)(F)C(=O)N2C [Example I-172, 4-(9-cyclopentyl-7,7-difluoro-5-methyl-6-oxo-6,7,8,9-tetra-hydro-5H-pyrimido[4,5-b][1,4]diazepin-2-ylamino)-N-(3-dimethylamino-propyl)-2-fluoro-5-methoxy-benzamide] | 1 to 50 nM
